In patent US20260209211A1, “CYCLIN K DEGRADER AND USE THEREOF” (ADLAI NORTYE BIOPHARMA CO., LTD., priority 2022, published 2026):
Like-named read-outs stand apart in the source and are kept apart here.

What was measured:
Type in all cases: cell-based
[1] = test system: NCI-N87 (Human Gastric Cancer Cell); assay: Bioactivity detection of NCI-N87 cell growth inhibition (CellTiter-Glo); conditions: NCI-N87 cells, 72 hours, highest concentration 10 μM, read-out: N87 CTG IC50
Experimental: This detection method is used to evaluate the biological activity of the compounds described in this disclosure at the cellular level.
(§1) NCI-N87 cells (purchased from the Chinese Academy of Sciences) were harvested, resuspended in complete medium and adjusted to a cell density of 0.1×10^6 cells per ml. The cell suspension was added to a 96-well plate at a volume of 100 μL per well and cultured overnight in a 37° C., 5% CO2 incubator. Prepare the test compound and add it to the cell plate so that the highest concentration of the compound is 10 μM. Set 8 concentration points according to 3-fold dilution. At the same time, 100% inhibition control wells were set, that is, wells with no cells but only an equal volume of complete culture medium; and 0% inhibition control wells, that is, wells with cells added with 0.1% DMSO. The cell plate was cultured at 37° C. and 5% CO2 for 72 hours. Remove the cell culture plate and add 25 μl CellTiter-Glo Luminescent Cell Viability Reagent (promega cat #G7573) to each well. Incubate in the dark for 10 minutes and then transfer 100 μL to a white plate and use Molecular Devices SpectraMax i3 to detect chemiluminescence. The inhibition rate was calculated using the following formula for data processing: compound inhibition rate=(0% inhibition control well signal−compound treatment well signal)/(0% inhibition control well signal−100% inhibition control well signal)*10000. The calculated data were fitted with four parameters using GraphPad Prism software and the corresponding IC50 was calculated.

Cyclin K (CCNK) = molecular target: T1, Cyclin K (CCNK) (Homo sapiens, UniProt O75909+Q9NYV4); assay: Western blot analysis of Cyclin K (CCNK) degradation in HEK293 cells; conditions: 6 h, different concentrations, compared with the control (FIG. 1)
T1 construct: host or cells: HEK293
Experimental: HEK293 cells (ATCC, cat #CRL-1573) were harvested and the cell density was adjusted to 1×10^6 cells per ml. 1 ml of cell suspension was plated into each well of a 6-well plate and cultured overnight. The compound stock solution was taken and diluted with DMSO to the appropriate concentration. The diluted compounds were added to the cell wells at a ratio of 1:1000 using culture medium to ensure that the DMSO concentration in each well was 0.1%. Negative control wells were also set up, which contained complete medium containing 0.1% DMSO. After treatment with the compounds at the concentrations indicated in the figures and at different times, total cell protein was extracted using RIPA cell lysis buffer (Beyotime, cat #P0013B) containing PMSF. After protein quantification using the BCA protein quantification kit (Thermo Fisher, cat #A53225), each sample was loaded with 40 μg for subsequent SDS-PAGE and western blot experiments. The specific conditions are as follows: after running the gel at a constant voltage of 120 V for 90 minutes, transfer the membrane at a constant current of 320 mA for 60 minutes. Incubate the antibodies according to the recommended dilution ratio and incubation time. The antibody information used in the experiment is as follows: Anti-GAPDH antibody (abcam, cat #ab9485), Anti-Cyclin K antibody (abcam, cat #ab85854), Goat anti-Rabbit IgG (H+L) Cross-Adsorbed Secondary Antibody, HRP (invitrogen, cat #G-21234). ECL luminescent solution (Thermo Fisher, cat #32209) was used for color development. The final results were analyzed using a gel imaging system.
According to the above detection method, some compounds described in the present disclosure were evaluated.

[2] = test system: HGC27 (Human Gastric Cancer Cell); assay: Bioactivity assay for HGC27 cell growth inhibition (CellTiter-Glo); conditions: read-out: HGC27 CTG IC50
Experimental: This detection method is used to evaluate the biological activity of the compounds of the present disclosure at the cellular level.
as §1, with “HGC27” for “NCI-N87”, “0.2×10^6” for “0.1×10^6”, “24” for “72”, “CellTiter-Glo®” for “CellTiter-Glo”, “signal)*100%.” for “signal)*10000.”

[3] = HGC-27, HGC27 cells, 24 hours, CellTiter-Glo, highest concentration 10 μM

T1 sequence (O75909 whole entry): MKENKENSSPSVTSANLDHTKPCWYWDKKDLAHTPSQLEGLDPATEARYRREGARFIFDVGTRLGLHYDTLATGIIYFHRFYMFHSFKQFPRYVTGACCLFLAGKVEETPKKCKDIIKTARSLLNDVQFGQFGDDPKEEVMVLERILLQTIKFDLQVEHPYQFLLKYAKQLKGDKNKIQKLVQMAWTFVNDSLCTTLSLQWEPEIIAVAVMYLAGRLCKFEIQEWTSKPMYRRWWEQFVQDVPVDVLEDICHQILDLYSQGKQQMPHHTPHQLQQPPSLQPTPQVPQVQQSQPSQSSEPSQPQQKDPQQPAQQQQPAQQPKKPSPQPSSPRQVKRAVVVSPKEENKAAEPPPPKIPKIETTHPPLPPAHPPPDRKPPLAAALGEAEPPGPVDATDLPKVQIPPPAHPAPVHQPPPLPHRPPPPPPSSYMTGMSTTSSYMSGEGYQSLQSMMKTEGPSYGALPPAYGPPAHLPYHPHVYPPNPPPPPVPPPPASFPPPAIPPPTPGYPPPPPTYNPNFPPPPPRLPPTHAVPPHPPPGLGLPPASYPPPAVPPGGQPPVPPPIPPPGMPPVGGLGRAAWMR
T1 sequence (Q9NYV4 whole entry): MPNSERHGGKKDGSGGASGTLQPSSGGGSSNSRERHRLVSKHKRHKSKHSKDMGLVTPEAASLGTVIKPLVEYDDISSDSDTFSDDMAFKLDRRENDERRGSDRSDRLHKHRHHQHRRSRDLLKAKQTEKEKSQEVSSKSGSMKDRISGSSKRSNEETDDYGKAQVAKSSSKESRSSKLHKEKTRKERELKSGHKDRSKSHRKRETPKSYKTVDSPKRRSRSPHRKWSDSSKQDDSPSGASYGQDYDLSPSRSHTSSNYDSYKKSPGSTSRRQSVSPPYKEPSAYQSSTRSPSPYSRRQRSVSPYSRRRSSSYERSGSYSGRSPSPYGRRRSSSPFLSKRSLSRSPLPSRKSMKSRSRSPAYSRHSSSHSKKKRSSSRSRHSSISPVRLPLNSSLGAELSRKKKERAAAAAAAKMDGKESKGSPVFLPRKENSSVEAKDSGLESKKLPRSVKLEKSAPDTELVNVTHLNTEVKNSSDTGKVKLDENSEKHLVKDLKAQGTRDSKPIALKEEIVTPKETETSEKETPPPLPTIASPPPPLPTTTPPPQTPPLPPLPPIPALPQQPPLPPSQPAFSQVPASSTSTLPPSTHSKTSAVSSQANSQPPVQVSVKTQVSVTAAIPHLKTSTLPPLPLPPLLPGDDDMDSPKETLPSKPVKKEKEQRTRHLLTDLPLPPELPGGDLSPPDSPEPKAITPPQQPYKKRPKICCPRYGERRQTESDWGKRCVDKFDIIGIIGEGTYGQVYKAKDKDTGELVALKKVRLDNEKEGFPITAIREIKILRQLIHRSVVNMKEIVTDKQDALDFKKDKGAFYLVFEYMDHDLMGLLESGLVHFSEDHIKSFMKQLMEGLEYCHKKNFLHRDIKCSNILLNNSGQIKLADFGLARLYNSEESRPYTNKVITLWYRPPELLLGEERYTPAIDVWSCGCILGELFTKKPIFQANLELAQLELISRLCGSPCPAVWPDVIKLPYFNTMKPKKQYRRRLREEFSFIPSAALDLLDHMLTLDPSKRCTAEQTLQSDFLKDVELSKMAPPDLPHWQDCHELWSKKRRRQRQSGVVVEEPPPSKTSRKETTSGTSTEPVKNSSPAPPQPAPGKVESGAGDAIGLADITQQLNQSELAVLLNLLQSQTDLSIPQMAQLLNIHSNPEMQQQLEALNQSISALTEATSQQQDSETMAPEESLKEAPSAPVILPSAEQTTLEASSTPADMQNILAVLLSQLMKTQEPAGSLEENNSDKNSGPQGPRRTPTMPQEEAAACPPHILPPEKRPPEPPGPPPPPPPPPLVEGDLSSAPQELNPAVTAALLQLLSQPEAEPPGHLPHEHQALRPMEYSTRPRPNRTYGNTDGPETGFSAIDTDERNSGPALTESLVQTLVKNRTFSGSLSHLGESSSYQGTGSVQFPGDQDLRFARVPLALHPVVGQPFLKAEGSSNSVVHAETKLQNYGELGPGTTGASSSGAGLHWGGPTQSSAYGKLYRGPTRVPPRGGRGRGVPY

Compound | IC50 [1] [nM] | IC50 [2, 3] [nM] | degradation of Cyclin K (western blot) (Cyclin K (CCNK)) | IC50 ([2]; HGC-27, 24 h) [nM]
C[C@@H](O)[C@@H](C)Oc1nc(NCc2ccc3c(c2)[nH]c2c(CO)ccnc23)ncc1C(F)(F)F [Compound 12] | 7.5 | 25 | significantly induce the degradation of Cyclin K | –
CC[C@@H](Nc1nc(NCc2ccc3c(c2)[nH]c2c(C)ccnc23)ncc1C(F)(F)F)C(N)=O [Compound 70] | 13 | 112 | – | –
CO[C@@H](C)[C@H](C#N)Nc1nc(NCc2ccc3c(c2)[nH]c2c(CO)ccnc23)ncc1C(F)(F)F [Compound 71] | 8.6 | 68 | – | –
CO[C@@H](C)[C@@H](Nc1nc(NCc2ccc3c(c2)[nH]c2c(CO)ccnc23)ncc1C#N)C(N)=O [Compound 74] | 75 | 128 | – | –
OCc1ccnc2c1[nH]c1cc(CNc3ncc(C(F)(F)F)c(N[C@@H]4CNCC[C@@H]4O)n3)ccc12 [Compound 75] | 22 | 38 | – | –
OCc1ccnc2c1[nH]c1cc(CNc3ncc(C(F)(F)F)c(N[C@@H]4CCNC[C@@H]4O)n3)ccc12 [Compound 77] | 61 | 151 | – | –
OCc1ccnc2c1[nH]c1cc(CNc3ncc(C(F)(F)F)c(N[C@@H]4CNC[C@@H]4O)n3)ccc12 [Compound 78] | 120 | 244 | – | –
CO[C@@H](C)[C@@H](Nc1nc(NCc2ccc3c(c2)nn2c(CO)ccnc32)ncc1C(F)(F)F)C(N)=O [Compound 79] | 9 | 38 | – | –
OCc1ccnc2c3ccc(CNc4ncc(C(F)(F)F)c(N[C@@H]5CNCC[C@@H]5O)n4)cc3nn12 [Compound 80] | 5.4 | 41 | – | –
N#Cc1ccnc2c1[nH]c1cc(CNc3ncc(C(F)(F)F)c(N[C@@H]4CNCC[C@@H]4O)n3)ccc12 [Compound 81] | 0.8 | – | – | 2
CO[C@@H](C)[C@@H](Nc1nc(NCc2ccc3c(c2)[nH]c2c(CO)ccnc23)ncc1C(F)(F)F)C(N)=O [Compound 82] | 6 | 28 | – | –
Cc1ccnc2c1[nH]c1cc(CNc3ncc(C(F)(F)F)c(N[C@@H]4CNCC[C@@H]4O)n3)ccc12 [Compound 83] | 8 | 8 | – | –
CC[C@@H](Oc1nc(NCc2ccc3c(c2)[nH]c2c(CN)ccnc23)ncc1C(F)(F)F)C(N)=O [Compound 84] | 85 | 409 | – | –
N#Cc1ccnc2c1[nH]c1cc(CNc3ncc(C(F)(F)F)c(N[C@@H]4CNCC[C@H]4O)n3)ccc12 [Compound 85] | 8.5 | – | – | 17
N#Cc1ccnc2c1[nH]c1cc(CNc3ncc(C(F)(F)F)c(N[C@@H]4CN(C(=O)CN)CC[C@@H]4O)n3)ccc12 [Compound 87] | 12 | 12 | – | –
C[C@@H](N)[C@@H](C)Oc1nc(NCc2ccc3c(c2)[nH]c2c(CO)ccnc23)ncc1C(F)(F)F [Compound 90] | 6 | 4.9 | – | –
N#Cc1ccnc2c1[nH]c1cc(CNc3ncc(C(F)(F)F)c(O[C@@H]4CNC[C@@H]4O)n3)ccc12 [Compound 91] | 5.3 | 14 | – | –
C[C@@H](O)[C@H](Nc1nc(NCc2ccc3c(c2)[nH]c2c(C#N)ccnc23)ncc1C(F)(F)F)C(N)=O [Compound 95] | 8 | – | – | 3
COc1ccnc2c1[nH]c1cc(CNc3ncc(C(F)(F)F)c(N[C@@H](C(N)=O)[C@H](C)OC)n3)ccc12 [Compound 97] | 6.6 | 43 | – | –

Continued, in another order:

IC50 [1] [nM] | IC50 [2, 3] [nM] | Compound | degradation of Cyclin K (western blot) (Cyclin K (CCNK)) | IC50 ([2]; HGC-27, 24 h) [nM]
3.1 | 68 | CC[C@@H](Nc1nc(NCc2ccc3c(c2)[nH]c2c(CO)ccnc23)ncc1C(F)(F)F)C(N)=O [Compound 17] | significantly induce the degradation of Cyclin K | –
< 1 | 8 | C[C@@H](O)[C@@H](C)Nc1nc(NCc2ccc3c(c2)[nH]c2c(CO)ccnc23)ncc1C(F)(F)F [Compound 18] | significantly induce the degradation of Cyclin K | –
1 | 36 | Cc1ccnc2c1[nH]c1cc(CNc3ncc(C(F)(F)F)c(N[C@H](C)[C@@H](C)O)n3)ccc12 [Compound 68] | – | –
3 | 6 | C[C@@H](O)[C@@H](CO)Nc1nc(NCc2ccc3c(c2)[nH]c2c(C#N)ccnc23)ncc1C(F)(F)F [Compound 73] | – | –
4 | 6 | N#Cc1ccnc2c1[nH]c1cc(CNc3ncc(C(F)(F)F)c(N[C@@H]4CNC[C@@H]4O)n3)ccc12 [Compound 86] | – | –
2 | 2 | CN1CC[C@H](O)[C@H](Nc2nc(NCc3ccc4c(c3)[nH]c3c(C#N)ccnc34)ncc2C(F)(F)F)C1 [Compound 88] | – | –
2.9 | 2 | N#Cc1ccnc2c1[nH]c1cc(CNc3ncc(C(F)(F)F)c(N[C@@H]4CCNC[C@@H]4O)n3)ccc12 [Compound 89] | – | –
4.1 | 17 | Cn1c2cc(CNc3ncc(C(F)(F)F)c(N[C@@H]4CNCC[C@@H]4O)n3)ccc2c2nccc(C#N)c21 [Compound 93] | – | –
3.7 | 9 | N#Cc1ccnc2c1[nH]c1cc(CNc3ncc(C(F)(F)F)c(N[C@@H]4CN(CCO)CC[C@@H]4O)n3)ccc12 [Compound 94] | – | –
2 | 7 | C[C@@H](O)[C@@H](C)Nc1nc(NCc2ccc3c(c2)[nH]c2c(C#N)ccnc23)ncc1C(F)(F)F [Compound 98] | – | –
